This is an account of results in ChEMBL document CHEMBL3351876 (Eur J Med Chem, 2014).

Where only a bound is given, the exact number is not on record here.

One experiment concerns Plasmodium falciparum. Briefly: Antimalarial activity against chloroquine-resistant ring stage Plasmodium falciparum W2 assessed as parasitemia after 48 hrs by flow cytometry. Particulars: W2, 48 h. It is filed as functional, organism-based.
The test system of another experiment is HeLa. Briefly: Cytotoxicity against human HeLa cells after 24 hrs by trypan blue exclusion assay. It is filed as cell-based.
The nature of experiment [1]: Selectivity index, ratio of CC50 for human HeLa cells to IC50 for chloroquine-resistant ring stage Plasmodium falciparum W2. It is filed as functional.
The target of another experiment is Heme. The experiment is described as follows: Binding affinity to heme assessed as inhibition of beta-haemozoin formation by UV-vis spectra analysis.

Take `CCCCNC(=S)N[C@@H]1C(=O)N(c2ccc(C)cc2)[C@@H]1/C=C/c1ccccc1`: in the experiment on Plasmodium falciparum, the IC50 is more than 10 µM. On the same count and under the same terms, with `Cc1ccc(N2C(=O)[C@@H](NC(=S)NCC(C)C)[C@H]2/C=C/c2ccccc2)cc1` the figure was more than 10 µM.

As to `Cc1ccc(NC(=S)N[C@@H]2C(=O)N(c3ccc(C)cc3)[C@@H]2/C=C/c2ccccc2)cc1`, the IC50 in the experiment on Plasmodium falciparum was more than 10 µM.

With `Cc1ccc(N2C(=O)[C@@H](NC(=S)NC3CCCCC3)[C@H]2/C=C/c2ccccc2)cc1`, in the experiment with Plasmodium falciparum, the IC50 was more than 10 µM. On the same count and under the same terms, with `Cc1ccc(N2C(=O)[C@@H](NC(=S)Nc3ccc(F)cc3)[C@H]2/C=C/c2ccccc2)cc1` the figure was more than 10 µM; with `CCCCN1C(=O)/C(=C/C=C/c2ccccc2)NC1=S`, more than 10 µM; with `CC(C)CN1C(=O)/C(=C/C=C/c2ccccc2)NC1=S`, more than 10 µM. The same measure, in the same setting: with `Cc1ccc(N2C(=O)/C(=C/C=C/c3ccccc3)NC2=S)cc1` the figure was more than 10 µM; with `O=C1/C(=C/C=C/c2ccccc2)NC(=S)N1C1CCCCC1`, more than 10 µM. Consider `O=C1/C(=C/C=C/c2ccccc2)NC(=S)N1c1ccc(F)cc1`, for which the IC50 in the experiment on Plasmodium falciparum is more than 10 µM. Still for that read-out and setting: with `Cc1ccc(N2C(=O)[C@H](NC(=S)Nc3ccnc4cc(Cl)ccc34)[C@@H]2/C=C/c2ccccc2)cc1` the figure was more than 10 µM; with `O=C1[C@H](NC(=S)Nc2ccnc3cc(Cl)ccc23)[C@H](/C=C/c2ccccc2)N1C1CCCCC1`, 6.13 µM; with `O=C1[C@H](NC(=S)Nc2ccnc3cc(Cl)ccc23)[C@H](/C=C/c2ccccc2)N1c1ccc(Cl)cc1`, 8.75 µM. Still for that read-out and setting: with `O=C1[C@H](NC(=S)Nc2ccnc3cc(Cl)ccc23)[C@H](/C=C/c2ccccc2)N1c1ccc(F)cc1` the figure was more than 10 µM; with `O=C1[C@H](NC(=S)Nc2ccnc3cc(Cl)ccc23)[C@H](/C=C/c2ccccc2)N1c1ccccc1`, more than 10 µM. Still for that read-out and setting: with `O=C1[C@H](NC(=S)Nc2ccnc3cc(Cl)ccc23)[C@H](/C=C/c2ccccc2)N1c1ccc(Br)cc1` the figure was 5.72 µM.

Take `O=C1/C(=C/C=C/c2ccccc2)NC(=S)N1CCNc1ccnc2cc(Cl)ccc12`: the IC50 in the experiment on Plasmodium falciparum turned out to be 0.0398 µM; in the experiment on HeLa it was 72 µM; on Heme it was 13.9 µM. In addition, in experiment [1], the “Ratio IC50” value amounted to 1807. For `O=C1/C(=C/C=C/c2ccccc2)NC(=S)N1CCCNc1ccnc2cc(Cl)ccc12`, in that order: 0.0425 µM, 91 µM, 19.9 µM and 2139. Taken in the same sequence, the figures for `O=C1/C(=C/C=C/c2ccccc2)NC(=S)N1CCCCNc1ccnc2cc(Cl)ccc12` were 0.0572 µM, more than 100 µM, 28.4 µM and more than 1747.

As to `O=C1/C(=C/C=C/c2ccccc2)NC(=S)N1CCCCCCNc1ccnc2cc(Cl)ccc12`, the IC50 in the experiment with Plasmodium falciparum is 0.387 µM.

As to `NCCN1C(=O)/C(=C/C=C/c2ccccc2)NC1=S`, the IC50 with Plasmodium falciparum was more than 10 µM.
